# Tested on: 997726-040-R-J2-PDC tumor spheroids, viability
# Experiment: Anticancer human tumor 997726-040-R-J2-PDC patient-derived squamous cell lung carcinoma cell line growth inhibition [PI3K]
# Details: spheroids with HUVEC and MSC; for IC50: curve of first compound; for viability, T/C: stronger effect = lower value
# In short: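 Spheroid viability read-out. Co-cultures contained the tumor line plus HUVEC and human MSCs. Each agent was paired with a PI3K inhibitor (inavolisib, alpelisib, duvelisib, copanlisib) across half-log dilutions starting at clinical Cmax, or at 10 microM when Cmax was unknown.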
# [1] = second compound 0.00316 µM, first compound 0.0316 µM
# [2] = second compound 0.00316 µM, first compound 0.1 µM
# [3] = second compound 0.00316 µM, first compound 0.316 µM
# [4] = second compound 0.00316 µM, first compound 1 µM
# [5] = second compound 0.00316 µM, first compound 3.16 µM
# [6] = second compound 0.00316 µM, first compound 10 µM
# [7] = second compound 0.01 µM, first compound 0.0316 µM
# [8] = second compound 0.01 µM, first compound 0.1 µM
# [9] = second compound 0.01 µM, first compound 0.316 µM
# [10] = second compound 0.01 µM, first compound 1 µM
# [11] = second compound 0.01 µM, first compound 3.16 µM
# [12] = second compound 0.01 µM, first compound 10 µM
# [13] = second compound 0.0316 µM, first compound 0.0316 µM
# [14] = second compound 0.0316 µM, first compound 0.1 µM
# [15] = second compound 0.0316 µM, first compound 0.316 µM
# [16] = second compound 0.0316 µM, first compound 1 µM
# [17] = second compound 0.0316 µM, first compound 3.16 µM
# [18] = second compound 0.0316 µM, first compound 10 µM
# [19] = second compound 0.1 µM, first compound 0.0316 µM
# [20] = second compound 0.1 µM, first compound 0.1 µM
# [21] = second compound 0.1 µM, first compound 0.316 µM
# [22] = second compound 0.1 µM, first compound 1 µM
# [23] = second compound 0.1 µM, first compound 3.16 µM
# [24] = second compound 0.1 µM, first compound 10 µM
# [25] = second compound 0.316 µM, first compound 0.0316 µM
# [26] = second compound 0.316 µM, first compound 0.1 µM
# [27] = second compound 0.316 µM, first compound 0.316 µM
# [28] = second compound 0.316 µM, first compound 1 µM
# [29] = second compound 0.316 µM, first compound 3.16 µM
# [30] = second compound 0.316 µM, first compound 10 µM
# [31] = second compound 1 µM, first compound 0.0316 µM
# [32] = second compound 1 µM, first compound 0.1 µM
# [33] = second compound 1 µM, first compound 0.316 µM
# [34] = second compound 1 µM, first compound 1 µM
# [35] = second compound 1 µM, first compound 3.16 µM
# [36] = second compound 1 µM, first compound 10 µM
# 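Note: spheroids exposed to compounds for seven days before readout.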
smiles,measurement,setting,value
CC(C)NCC(C(=O)N1CCN(c2ncnc3c2C(C)CC3O)CC1)c1ccc(Cl)cc1 (stereo not drawn) + COc1c(OCCCN2CCOCC2)ccc2c3n(c(=NC(=O)c4cnc(N)nc4)nc12)CCN3,IC50,second compound 0.00316 µM,190 nM
same,IC50,second compound 0.01 µM,79.8 nM
same,IC50,second compound 0.0316 µM,< 31.6 nM
same,IC50,second compound 0.1 µM,< 31.6 nM
same,IC50,second compound 0.316 µM,< 31.6 nM
same,IC50,second compound 1 µM,< 31.6 nM
same,"viability, T/C",[1],67.1%
same,"viability, T/C",[2],55.3%
same,"viability, T/C",[3],46%
same,"viability, T/C",[4],29.1%
same,"viability, T/C",[5],15.7%
same,"viability, T/C",[6],9.1%
same,"viability, T/C",[7],51.6%
same,"viability, T/C",[8],49.6%
same,"viability, T/C",[9],42.8%
same,"viability, T/C",[10],27%
same,"viability, T/C",[11],16.8%
same,"viability, T/C",[12],9.46%
same,"viability, T/C",[13],36.4%
same,"viability, T/C",[14],33.1%
same,"viability, T/C",[15],27%
same,"viability, T/C",[16],22.3%
same,"viability, T/C",[17],13.3%
same,"viability, T/C",[18],7.3%
same,"viability, T/C",[19],19.4%
same,"viability, T/C",[20],17.6%
same,"viability, T/C",[21],18.9%
same,"viability, T/C",[22],14.4%
same,"viability, T/C",[23],8.93%
same,"viability, T/C",[24],5.81%
same,"viability, T/C",[25],6.3%
same,"viability, T/C",[26],5.44%
same,"viability, T/C",[27],4.27%
same,"viability, T/C",[28],3.76%
same,"viability, T/C",[29],3.51%
same,"viability, T/C",[30],2.65%
same,"viability, T/C",[31],1.14%
same,"viability, T/C",[32],1.32%
same,"viability, T/C",[33],1.04%
same,"viability, T/C",[34],1.33%
same,"viability, T/C",[35],2.38%
same,"viability, T/C",[36],1.22%
CCN1CCN(Cc2ccc(Nc3ncc(F)c(-c4cc(F)c5nc(C)n(C(C)C)c5c4)n3)nc2)CC1 + COc1c(OCCCN2CCOCC2)ccc2c3n(c(=NC(=O)c4cnc(N)nc4)nc12)CCN3,IC50,second compound 0.00316 µM,> 1000 nM
same,IC50,second compound 0.01 µM,10.4 nM
same,IC50,second compound 0.0316 µM,< 3.16 nM
same,IC50,second compound 0.1 µM,< 3.16 nM
same,IC50,second compound 0.316 µM,< 3.16 nM
same,IC50,second compound 1 µM,< 3.16 nM
same,"viability, T/C","second compound 0.00316 µM, first compound 0.00316 µM",70%
same,"viability, T/C","second compound 0.00316 µM, first compound 0.01 µM",68.4%
same,"viability, T/C",[1],62.2%
same,"viability, T/C",[2],54.2%
same,"viability, T/C",[3],55.1%
same,"viability, T/C",[4],65.3%
same,"viability, T/C","second compound 0.01 µM, first compound 0.00316 µM",61%
same,"viability, T/C","second compound 0.01 µM, first compound 0.01 µM",50.4%
same,"viability, T/C",[7],49.1%
same,"viability, T/C",[8],41.3%
same,"viability, T/C",[9],41.5%
same,"viability, T/C",[10],60.8%
same,"viability, T/C","second compound 0.0316 µM, first compound 0.00316 µM",31.4%
same,"viability, T/C","second compound 0.0316 µM, first compound 0.01 µM",34.8%
same,"viability, T/C",[13],29.5%
same,"viability, T/C",[14],28.1%
same,"viability, T/C",[15],31%
same,"viability, T/C",[16],33.7%
same,"viability, T/C","second compound 0.1 µM, first compound 0.00316 µM",22%
same,"viability, T/C","second compound 0.1 µM, first compound 0.01 µM",20.4%
same,"viability, T/C",[19],17.7%
same,"viability, T/C",[20],16.6%
same,"viability, T/C",[21],16.9%
same,"viability, T/C",[22],19.3%
same,"viability, T/C","second compound 0.316 µM, first compound 0.00316 µM",5.44%
same,"viability, T/C","second compound 0.316 µM, first compound 0.01 µM",4.49%
same,"viability, T/C",[25],4.5%
same,"viability, T/C",[26],6.65%
same,"viability, T/C",[27],6.95%
same,"viability, T/C",[28],7.72%
same,"viability, T/C","second compound 1 µM, first compound 0.00316 µM",1.02%
same,"viability, T/C","second compound 1 µM, first compound 0.01 µM",1.63%
same,"viability, T/C",[31],1.24%
same,"viability, T/C",[32],1.32%
same,"viability, T/C",[33],2.23%
same,"viability, T/C",[34],3.91%
Cn1ncc(Cl)c1-c1cc(C(=O)NC(CN)Cc2cccc(F)c2)sc1Cl (stereo not drawn) + COc1c(OCCCN2CCOCC2)ccc2c3n(c(=NC(=O)c4cnc(N)nc4)nc12)CCN3,IC50,second compound 0.00316 µM,53.2 nM
same,IC50,second compound 0.01 µM,< 31.6 nM
same,IC50,second compound 0.0316 µM,< 31.6 nM
same,IC50,second compound 0.1 µM,< 31.6 nM
same,IC50,second compound 0.316 µM,< 31.6 nM
same,IC50,second compound 1 µM,< 31.6 nM
same,"viability, T/C",[1],55.2%
same,"viability, T/C",[2],43.9%
same,"viability, T/C",[3],25.2%
same,"viability, T/C",[4],15.7%
same,"viability, T/C",[5],9.84%
same,"viability, T/C",[6],10.3%
same,"viability, T/C",[7],46.3%
same,"viability, T/C",[8],39%
same,"viability, T/C",[9],21.6%
same,"viability, T/C",[10],12.4%
same,"viability, T/C",[11],7.68%
same,"viability, T/C",[12],10.1%
same,"viability, T/C",[13],30.6%
same,"viability, T/C",[14],28%
same,"viability, T/C",[15],20%
same,"viability, T/C",[16],10.6%
same,"viability, T/C",[17],8.98%
same,"viability, T/C",[18],7.48%
same,"viability, T/C",[19],21.4%
same,"viability, T/C",[20],19.4%
same,"viability, T/C",[21],12.5%
same,"viability, T/C",[22],8.76%
same,"viability, T/C",[23],8.67%
same,"viability, T/C",[24],5.52%
same,"viability, T/C",[25],4.97%
same,"viability, T/C",[26],5.24%
same,"viability, T/C",[27],3.32%
same,"viability, T/C",[28],4.64%
same,"viability, T/C",[29],4.59%
same,"viability, T/C",[30],3.13%
same,"viability, T/C",[31],1.15%
same,"viability, T/C",[32],1.24%
same,"viability, T/C",[33],1.45%
same,"viability, T/C",[34],1.8%
same,"viability, T/C",[35],2.57%
same,"viability, T/C",[36],0.94%
Cn1nccc1Nc1nccc(-c2ccn(C(CO)c3ccc(Cl)c(F)c3)c(=O)c2)n1 (stereo not drawn) + COc1c(OCCCN2CCOCC2)ccc2c3n(c(=NC(=O)c4cnc(N)nc4)nc12)CCN3,IC50,second compound 0.00316 µM,299 nM
same,IC50,second compound 0.01 µM,40.8 nM
same,IC50,second compound 0.0316 µM,< 31.6 nM
same,IC50,second compound 0.1 µM,< 31.6 nM
same,IC50,second compound 0.316 µM,< 31.6 nM
same,IC50,second compound 1 µM,< 31.6 nM
same,"viability, T/C",[1],70.4%
same,"viability, T/C",[2],66.3%
same,"viability, T/C",[3],49.1%
same,"viability, T/C",[4],51.9%
same,"viability, T/C",[5],44.8%
same,"viability, T/C",[6],49.8%
same,"viability, T/C",[7],52%
same,"viability, T/C",[8],47.7%
same,"viability, T/C",[9],40.3%
same,"viability, T/C",[10],43.9%
same,"viability, T/C",[11],42.1%
same,"viability, T/C",[12],34.2%
same,"viability, T/C",[13],37.3%
same,"viability, T/C",[14],35.5%
same,"viability, T/C",[15],26.8%
same,"viability, T/C",[16],27.5%
same,"viability, T/C",[17],27.3%
same,"viability, T/C",[18],25.2%
same,"viability, T/C",[19],20.4%
same,"viability, T/C",[20],20.2%
same,"viability, T/C",[21],18.3%
same,"viability, T/C",[22],19%
same,"viability, T/C",[23],20%
same,"viability, T/C",[24],11.8%
same,"viability, T/C",[25],5.76%
same,"viability, T/C",[26],4.79%
same,"viability, T/C",[27],5.29%
same,"viability, T/C",[28],3.62%
same,"viability, T/C",[29],3.85%
same,"viability, T/C",[30],0.65%
same,"viability, T/C",[31],0.97%
same,"viability, T/C",[32],1.38%
same,"viability, T/C",[33],1.3%
same,"viability, T/C",[34],0.75%
same,"viability, T/C",[35],0.59%
same,"viability, T/C",[36],0.31%

# Reference: PubChem BioAssay AID1963964 (Molecular Pharmacology Branch, DTP, NCI, 2024)
